Test results as given in ChEMBL document CHEMBL4364328, “Inhibition of ACSS2 for Treatment of Cancer and Neuropsychiatric Diseases” (ACS Med Chem Lett, 2019).

Each compound was assayed against Acetyl-coenzyme A synthetase, cytoplasmic (Homo sapiens, UniProt Q9NR19) (assay: Inhibition of ACSS2 in human MDA-MB-468 cells assessed as 13C-acetate incorporation incubated for 5 hrs measured under hypoxic conditions by LCMS analysis).
Assay type: cell-based

Chain of Acetyl-coenzyme A synthetase, cytoplasmic (Q9NR19 whole entry): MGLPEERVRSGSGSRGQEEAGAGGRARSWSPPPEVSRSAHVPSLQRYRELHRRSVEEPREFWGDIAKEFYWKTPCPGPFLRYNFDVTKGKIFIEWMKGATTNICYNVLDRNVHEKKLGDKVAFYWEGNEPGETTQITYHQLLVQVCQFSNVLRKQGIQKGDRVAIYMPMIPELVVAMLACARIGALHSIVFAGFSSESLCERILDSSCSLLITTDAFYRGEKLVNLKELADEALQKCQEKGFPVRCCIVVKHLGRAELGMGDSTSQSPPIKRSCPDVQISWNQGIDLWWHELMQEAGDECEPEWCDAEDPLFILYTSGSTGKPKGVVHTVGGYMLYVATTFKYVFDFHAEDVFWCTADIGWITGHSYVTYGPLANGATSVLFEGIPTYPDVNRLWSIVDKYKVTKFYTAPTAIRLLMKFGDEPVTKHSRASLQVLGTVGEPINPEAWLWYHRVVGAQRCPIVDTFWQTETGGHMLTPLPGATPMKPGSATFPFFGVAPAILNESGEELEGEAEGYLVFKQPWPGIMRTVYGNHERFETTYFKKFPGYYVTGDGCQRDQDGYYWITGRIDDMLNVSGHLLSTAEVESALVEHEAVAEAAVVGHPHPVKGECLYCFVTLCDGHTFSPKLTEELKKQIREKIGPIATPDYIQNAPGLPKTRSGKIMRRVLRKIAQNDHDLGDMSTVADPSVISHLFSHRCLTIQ

| IC50 [nM] | SMILES |
| --- | --- |
| 5 | COc1ccc(N2N=C(C)C(C(=O)Nc3cccc(C(C)(F)F)c3)C2=O)cn1 (stereo unspecified) |
| 0.463 | CCC(F)(F)c1cccc(NC(=O)C2C(=O)N(c3ccc(OC)cc3)N=C2C)c1 (stereo unspecified) |
| 2.1 | COC(=O)c1cccc(N2N=C(C)C(C(=O)Nc3cccc(-c4ccco4)c3)C2=O)c1 (stereo unspecified) |
| 4 | CC1=NN(c2ccccc2)C(=O)C1C(=O)Nc1cccc(C(C)(F)F)c1 (stereo unspecified) |
| 1.1 | COc1ccc(N2N=C(C)C(C(=O)Nc3cccc(C(C)(F)F)c3)C2=O)cc1-c1ncco1 (stereo unspecified) |
| 3.9 | COc1ccc(N2N=C(C)C(C(=O)Nc3cccc(-c4ccco4)c3)C2=O)cn1 (stereo unspecified) |
| 1 | COc1ccc(N2N=C(C)C(C(=O)Nc3cccc(C(C)(F)F)c3)C2=O)cc1OC (stereo unspecified) |
| 4.5 | COc1ccc(N2N=C(C)C(C(=O)Nc3cccc(C(C)(F)F)c3)C2=O)cc1 (stereo unspecified) |
| 3.2 | COc1ccc(N2N=C(C)C(C(=O)Nc3cccc(-c4ccco4)c3)C2=O)cc1 (stereo unspecified) |
| 0.33 | CC1=NN(c2ccc(OC(F)F)c(-c3cccnc3)c2)C(=O)C1C(=O)Nc1cccc(C(C)(F)F)c1 (stereo unspecified) |
| 2.66 | CC1=NN(c2ccc(OC(F)F)cc2)C(=O)C1C(=O)Nc1cccc(C(C)(F)F)c1 (stereo unspecified) |
